Measurements as given in patent publication US6365632B1, “Treatment of orthostatic hypotension” (Knoll Pharmaceuticals Company, priority 1999, dated 2002).

Experiments:
[1] = target: [3H] Noradenaline reuptake in rat brain tissue; test: in vitro [3H]noradrenaline reuptake inhibition in rat brain tissue; assay type: biochemical; details: means of ≧3 separate determinations
[2] = target: [3H] Dopamine reuptake in rat brain tissue; test: in vitro [3H]dopamine reuptake inhibition in rat brain tissue; assay type: biochemical; details: means of ≧3 separate determinations

Compound | Ki [1] [nM] | Ki [2] [nM]
COc1ccc(C(CN(C)C)C2(O)CCCCC2)cc1 (stereo not shown) [Venlafaxine] | 196 | 2590
CC(NC(C)(C)C)C(=O)c1cccc(Cl)c1 (stereo not shown) [Bupropion] | 2590 | 409
